Results as given in ChEMBL document CHEMBL1201862, “PubChem BioAssay data set” (2004).
Activity calls are given as the source filed them.

How the values were obtained:
[1] = test system: INS1; assay: beta cell apoptosis inhibitors, cytokine rescue, dose response, luminescence, retest (AID 449756); assay type: functional, cell-based; details: Rattus norvegicus;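 also: cell death triggered by IL-1 beta plus TNF-alpha plus IFN-gamma mixture; protective hits raise ATP signal compared with cytokine alone wells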
[2] = cytotoxicity in HEK-293T NF-kB-Luc cells, dose response, cytotoxicity control for B/T-cell NF-kB inhibitor project, cell-based, uHTS hits (AID 489019); assay type: functional;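 also: IC50 reflects cytotoxicity as loss of cell viability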
[3] = test system: Jurkat; assay: antigen receptor-induced NF-kB inhibitors, dose response, Jurkat, luciferase reporter, luminescence, B- and T-cell (AID 489004); assay type: functional, cell-based; details: Homo sapiens;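 also: NF-kB luciferase reporter Jurkat cells stimulated with PMA plus ionomycin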
[4] = test system: HEK293; assay: cells; details: Homo sapiens
[5] = A Cell Based Secondary Assay To Explore Cytotoxicity of Compounds that Sensitize Mycobacterium Tuberculosis to Beta-Lactam Antibiotics.; assay type: functional
[6] = cytotoxicity toward NIH3T3 fibroblasts, dose response, counter-screen, cell-based, ATP luminescence, mouse fibroblasts (AID 2010); assay type: functional;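 also: cells exposed to compound for about 90 hours before reading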
[7] = inhibitors of PGC1a acetylation in cells, dose response, cell-based, cherry-picked samples (AID 720514); assay type: functional;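 also: potency may reflect raised or lowered acetylation signal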
[8] = inhibitors of intracellular T. cruzi replication, confirmation, NIH3T3 host cells, beta-gal luminescence (AID 2044); assay type: functional, cell-based;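 also: intracellular parasites grown in NIH/3T3 mouse fibroblasts as host cells; luminescent beta-galactosidase reporter signal from transgenic T. cruzi replicating inside host cells; inhibitors lower the luminescence signal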
[9] = target: T1, Heat shock factor protein 1 (Mus musculus, UniProt P38532); assay: HSF1 potentiators in luciferase reporter cells, confirmation, cell-based, NIH3T3, luminescence, dose retest (AID 435004); assay type: functional;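 also: stress induced by proteasome inhibitor MG132 added 30 min after compound; luciferase reporter driven by HSF1 response element in NIH3T3 cells; actives raise luminescence as potentiators of the MG132 stress response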
T1 sequence (P38532 whole entry): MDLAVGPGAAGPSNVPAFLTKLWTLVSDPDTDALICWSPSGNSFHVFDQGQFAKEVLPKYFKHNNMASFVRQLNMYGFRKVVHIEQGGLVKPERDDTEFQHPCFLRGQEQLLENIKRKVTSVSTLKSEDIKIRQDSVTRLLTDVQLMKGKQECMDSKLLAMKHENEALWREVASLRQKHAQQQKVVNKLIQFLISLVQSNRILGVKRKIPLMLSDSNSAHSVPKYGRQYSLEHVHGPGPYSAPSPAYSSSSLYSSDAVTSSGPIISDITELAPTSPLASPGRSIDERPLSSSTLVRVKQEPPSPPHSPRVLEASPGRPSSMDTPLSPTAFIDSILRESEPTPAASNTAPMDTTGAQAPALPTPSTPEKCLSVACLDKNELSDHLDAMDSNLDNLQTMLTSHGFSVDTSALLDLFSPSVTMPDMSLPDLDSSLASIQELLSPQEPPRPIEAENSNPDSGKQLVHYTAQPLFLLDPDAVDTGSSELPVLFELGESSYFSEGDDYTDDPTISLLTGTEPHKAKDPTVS

[10] = test system: HEK293; assay: cells; details: Homo sapiens; remark: listed apart in the source
[11] = target: T2, Leucine aminopeptidase (Plasmodium falciparum 3D7, UniProt Q8IL11); assay: P. falciparum M17LAP inhibitors, primary screen, biochemical, fluorogenic H-Leu-NHMec substrate, 1536-well (AID 1619); assay type: functional
T2 sequence (Q8IL11 whole entry): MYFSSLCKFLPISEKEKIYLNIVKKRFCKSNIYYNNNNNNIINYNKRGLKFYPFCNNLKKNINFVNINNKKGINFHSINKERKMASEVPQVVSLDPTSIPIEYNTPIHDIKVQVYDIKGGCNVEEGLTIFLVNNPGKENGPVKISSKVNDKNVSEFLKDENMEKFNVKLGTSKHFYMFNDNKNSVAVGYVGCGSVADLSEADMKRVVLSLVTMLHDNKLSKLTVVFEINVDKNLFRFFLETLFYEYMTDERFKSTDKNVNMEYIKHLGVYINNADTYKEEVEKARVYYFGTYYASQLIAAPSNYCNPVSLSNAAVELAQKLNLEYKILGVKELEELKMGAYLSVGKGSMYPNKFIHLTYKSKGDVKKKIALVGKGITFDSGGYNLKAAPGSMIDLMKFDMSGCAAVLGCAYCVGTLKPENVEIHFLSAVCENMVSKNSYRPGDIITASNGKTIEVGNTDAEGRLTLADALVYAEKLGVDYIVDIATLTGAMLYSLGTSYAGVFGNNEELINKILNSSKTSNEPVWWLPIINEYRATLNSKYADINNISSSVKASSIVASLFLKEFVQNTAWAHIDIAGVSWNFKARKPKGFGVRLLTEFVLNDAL

[12] = target: Cytochrome P450 2D6 (Homo sapiens, UniProt P10635);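 also: CYP2D6 member of a cytochrome P450 panel assay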
Cytochrome P450 2D6, sequence (P10635 whole entry): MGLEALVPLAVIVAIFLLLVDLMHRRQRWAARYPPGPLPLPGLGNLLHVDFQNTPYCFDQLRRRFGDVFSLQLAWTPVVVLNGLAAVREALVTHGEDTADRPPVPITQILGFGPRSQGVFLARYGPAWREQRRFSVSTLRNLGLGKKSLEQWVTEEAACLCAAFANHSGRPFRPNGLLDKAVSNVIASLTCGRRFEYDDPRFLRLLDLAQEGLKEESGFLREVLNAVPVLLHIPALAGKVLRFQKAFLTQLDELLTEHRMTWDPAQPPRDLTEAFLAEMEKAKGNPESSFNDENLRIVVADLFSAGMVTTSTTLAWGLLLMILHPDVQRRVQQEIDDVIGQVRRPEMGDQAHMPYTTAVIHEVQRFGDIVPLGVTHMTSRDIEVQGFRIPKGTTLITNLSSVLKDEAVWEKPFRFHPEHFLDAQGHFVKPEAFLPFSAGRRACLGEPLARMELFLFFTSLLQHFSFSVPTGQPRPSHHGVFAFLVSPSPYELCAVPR

[13] = target: Cytochrome P450 2C19 (Homo sapiens, UniProt P33261); assay: Cytochrome panel assay with activity outcomes. Panel member name: p450-cyp2c19 Compounds with AC50 equal or less than 10 uM are considered active; assay type: functional; details: read-out: AC50
Cytochrome P450 2C19, sequence (P33261 whole entry): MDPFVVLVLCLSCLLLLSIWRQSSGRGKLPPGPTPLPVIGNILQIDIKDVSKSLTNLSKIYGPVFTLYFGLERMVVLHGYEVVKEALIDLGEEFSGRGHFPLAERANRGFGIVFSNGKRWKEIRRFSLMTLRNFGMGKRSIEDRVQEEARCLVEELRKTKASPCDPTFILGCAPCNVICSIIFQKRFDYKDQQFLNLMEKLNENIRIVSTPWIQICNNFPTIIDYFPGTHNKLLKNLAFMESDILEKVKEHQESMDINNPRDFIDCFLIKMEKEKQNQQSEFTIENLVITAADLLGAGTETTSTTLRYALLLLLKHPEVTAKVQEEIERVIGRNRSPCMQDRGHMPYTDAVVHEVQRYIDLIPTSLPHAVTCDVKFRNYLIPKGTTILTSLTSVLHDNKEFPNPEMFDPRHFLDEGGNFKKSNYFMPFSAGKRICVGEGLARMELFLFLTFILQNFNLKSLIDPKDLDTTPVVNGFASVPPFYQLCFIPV

[14] = target: Cytochrome P450 2C9 (Homo sapiens, UniProt P11712)
Cytochrome P450 2C9, sequence (P11712 whole entry): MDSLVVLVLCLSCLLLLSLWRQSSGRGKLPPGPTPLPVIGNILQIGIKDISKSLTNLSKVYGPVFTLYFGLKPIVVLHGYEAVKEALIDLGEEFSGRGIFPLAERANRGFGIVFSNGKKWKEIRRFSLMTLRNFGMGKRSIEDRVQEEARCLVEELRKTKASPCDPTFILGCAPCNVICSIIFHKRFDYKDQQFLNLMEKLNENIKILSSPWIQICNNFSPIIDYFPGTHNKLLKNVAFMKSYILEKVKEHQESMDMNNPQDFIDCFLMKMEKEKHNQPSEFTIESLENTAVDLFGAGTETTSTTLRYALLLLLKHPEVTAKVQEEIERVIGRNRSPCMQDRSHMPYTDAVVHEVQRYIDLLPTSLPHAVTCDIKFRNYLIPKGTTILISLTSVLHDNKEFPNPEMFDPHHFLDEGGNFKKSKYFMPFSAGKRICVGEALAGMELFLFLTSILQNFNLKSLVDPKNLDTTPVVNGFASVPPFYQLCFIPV

[15] = test system: HEK293; assay: SAR Analysis of small molecule inhibitors of T-cell specific antigen receptor-induced NF-kB activation in a HEK-293T cell line using a luminescence assay - Set 2. [Related pubchem assays (depositor defined):AID435003, AID435012, AID489026]; assay type: functional, cell-based; details: Homo sapiens
[16] = test system: Jurkat; assay: SAR Analysis of small molecule inhibitors of T-cell specific antigen receptor-induced NF-kB activation in a Jurkat cell line using a luminescence assay - Set 2. [Related pubchem assays (depositor defined):AID435003, AID435012, AID465]; assay type: functional, cell-based; details: Homo sapiens
[17] = test system: HEK293; assay: cytotoxicity in HEK293T NF-kB-Luc cells, SAR follow-up, cytotoxicity control for NF-kB activator project, cell-based, resazurin fluorescence (AID 493251); assay type: functional; details: Homo sapiens
[18] = target: T3, Microphthalmia-associated transcription factor (Homo sapiens, UniProt O75030); assay: TRPM1 promoter luciferase signal decrease, dose response, MITF inhibitor project, cell-based, SK-MEL-5, cherry-picked, set 3 (AID 493073); assay type: functional
T3 sequence (O75030 whole entry): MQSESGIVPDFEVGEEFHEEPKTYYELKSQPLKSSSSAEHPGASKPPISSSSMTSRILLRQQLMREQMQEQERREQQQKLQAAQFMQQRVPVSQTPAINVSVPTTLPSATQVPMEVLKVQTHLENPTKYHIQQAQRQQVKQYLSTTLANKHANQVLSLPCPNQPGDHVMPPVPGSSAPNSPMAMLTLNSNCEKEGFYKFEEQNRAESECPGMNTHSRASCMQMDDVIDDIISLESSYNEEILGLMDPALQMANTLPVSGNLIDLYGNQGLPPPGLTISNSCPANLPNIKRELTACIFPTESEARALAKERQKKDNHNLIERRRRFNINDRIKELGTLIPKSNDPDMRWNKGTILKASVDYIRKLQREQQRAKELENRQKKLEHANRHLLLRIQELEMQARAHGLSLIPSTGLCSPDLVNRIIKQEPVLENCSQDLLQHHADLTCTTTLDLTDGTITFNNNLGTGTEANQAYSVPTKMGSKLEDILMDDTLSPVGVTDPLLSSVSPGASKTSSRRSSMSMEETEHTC

[19] = test system: A-375; assay: A375 melanoma cell viability reduction, dose response, counter-screen for MITF modulator project, cherry-pick samples, set 2 (AID 540335); assay type: functional, cell-based; details: Homo sapiens
[20] = Luminescence Cell-Based Dose Retest to Confirm Inhibitors of Cancer Stem Cells. [Related pubchem assays (depositor defined):AID2717, AID2721]; assay type: functional; details: Homo sapiens

CCCCCCCCn1ccc(=N)cc1
AC50 [1]: 0.585 µM (active) | IC50 [2]: > 80 µM (inactive) | IC50 [3]: > 80 µM (inactive)

N#Cc1cc(Oc2cccc3cccnc23)c(-n2nnc3ccccc32)cc1C#N
EC50 [4]: > 59.6 µM (inactive) | CC50 [5]: > 40 µM (active) | EC50 [6]: 22.6 µM (active) | AC50 [7]: 2.77 µM (active) | EC50 [8]: 2.25 µM (active) | EC50 [9]: > 260 µM (inactive) | EC50 [10]: > 59.6 µM (inactive)

Cc1ccc(NC(=O)c2cc(NC(=O)CCC(=O)O)ccc2N2CCCCC2)cc1
IC50 [11]: 11.8 µM (active) | AC50 [12]: inconclusive | AC50 [13]: 35.5 µM (inconclusive) | AC50 [14]: 14.1 µM (inconclusive)

Cc1ccc(NC(=O)c2ccc([N+](=O)[O-])o2)cc1C(F)(F)F
IC50 [15]: 68.5 µM (inactive) | IC50 [16]: 0.45 µM (active) | IC50 [17]: 60 µM (inactive)

Cc1ccc(C)c(NC(=O)/C(C#N)=C/c2cn(CC(=O)NCc3ccco3)c3ccccc23)c1
AC50 [18]: 6.56 µM (active) | AC50 [1]: 3.67 µM (active) | AC50 [19]: 33.9 µM (active) | AC50 [20]: 57.8 µM (active)
